Results: article PMC7170309, “Imidazopyridine-fused [1,3]diazepinones: modulations of positions 2 to 4 and their impacts on the anti-melanoma activity” (Journal of Enzyme Inhibition and Medicinal Chemistry, 2020)
Read-outs that look alike come from different tables or passages of the source.

How the values were obtained:
[1] = system: MDA-MB-435 melanoma cells; set-up: method as in PMID 27871038; conditions: previously described naphthyl analogues; read-out: IC50 on MDA-MB-435 cell line; cited from earlier work
A375 melanoma cells = test: Neutral red uptake (NRU) viability assay, A375; type: cell-based, human; conditions: for IC50: Homo sapiens, A-375, 72 h, mean ± SD of three experiments; for cytotoxic activity on A375 (in words): up to 40 µM
Method: (§1) Melanoma human cancer cell line (A375 and MDA-MB-435) were obtained from ATCC. The NIH-3T3 cell line was generously gifted by the ANSM (French National Agency for Medicines and Health Products Safety, Vendargues, France). Cells were cultured in Dulbecco’s Modified Eagle Medium (DMEM, Sigma Aldrich) supplemented with 10% heat-inactivated foetal calf serum (FCS, Gibco), 2 mM glutamax (Gibco), 100 IU/mL penicillin G sodium (Sigma Aldrich), 100 lU/mL streptomycin sulphate (Sigma Aldrich). The cells were allowed to grow at 37 °C in a fully humidified atmosphere containing 5% CO2.
(§2) A viability assay was used to evaluate the cytotoxic activity on A375 and MDA-MB-435 melanoma cells as previously described. According to OCDE/ICCVAM guidance n°129, NRU assay was also used to evaluate the toxicity on the non-cancerous NIH-3T3 cells. Cells were seeded at a final concentration of 2000 cells/well (A375), 3000 cells/well (NIH-3T3) or 7500 cells/well (MDA-MB-435) in 96-well microtiter plates for 24 h. Then, cells were exposed to two negative controls (1% DMSO in culture medium (vehicle) and culture medium alone), or to different compounds freshly dissolved in DMSO, in a range of concentration from 0.01 to 40 µM (six wells per concentration). After 72 h of incubation, cells were stained with new medium containing 50 µg/mL of neutral red (3-amino-7-dimethylamino-2-methylphenazine hydrochloride, Sigma Aldrich) at 37 °C for 2 h. The neutral red medium solution was then removed and the wells were washed with PBS. Finally, 100 µL of solution containing ethanol, acetic acid and water (50/1/49 v/v/v respectively) were added into the wells and the absorbance was measured at 540 nm using the microplate reader 352 Multiscan MS (Labsystems). Cell survival rates were normalised to the absorbance values of untreated control cells. IC50 was obtained using a logistic regression model on Graphpad Prism 5.0 software. Results are given as the mean ± standard deviation (SD) of three independent experiments. Statistical analysis was performed using the Student’s t-test.

[2] = system: MDA-MB-435 melanoma cells; test: Neutral red uptake (NRU) viability assay, MDA-MB-435; type: cell-based, human; conditions: for IC50: Homo sapiens, MDA-MB-435, 72 h, mean ± SD of three experiments; for IC50 / cytotoxic activity on MDA-MB-435 (in words): NRU assay; for cytotoxic activity on MDA-MB-435 (in words): up to 40 µM; for times less active on MDA-MB-435 than on A375 cells: ratio of NRU IC50 values
Method: as §1, §2

[3] = system: NIH-3T3 non-cancerous cells; test: Neutral red uptake (NRU) toxicity assay, NIH-3T3; type: cell-based; conditions: non-cancerous mouse fibroblasts
Method: as §1, §2
Then, all active compounds on the two melanoma cell lines (IC50 < 40 µM) were assessed on the NIH-3T3 mouse fibroblast cell line, in order to check the toxicity of our compounds on non-cancerous cells. […] As a possible modification of the mechanism of action was hypothesised for these two derivatives (see above), this phenomenon could probably be also correlated with the cytotoxicity observed on the NIH-3T3 cell line.

[4] = Calculated physicochemical parameters (molsoft cheminformatic tool); conditions: predicted
Method: Data set of physicochemical properties (cLogP, TPSA and molecular volume, Table 2) were calculated using the online available molsoft cheminformatic tool[23]. IC50 values of the compounds included in the test are presented in Table 1 for the correlations between IC50 and physicochemical properties of compounds modified in position 2 (Figure 2), and in Table S1 (SI) for the correlations between in vitro anti-cancer activity of JMV5038, compound 5 and […] on the NCI cell line panel (Figure 4). Pearson’s correlation coefficient r and level of significant p values were calculated using Origin Pro 2019.

[5] = Hydrolysis of ester 19 into acid 21 in the presence of melanoma cells and culture medium (HPLC-MS); type: in vitro ADME; conditions: after 72 h in the presence of melanoma cells and culture medium
Description: Then, we turned our attention to the SAR study of the position 4 of the diazepine ring, keeping constant the 4-bromophenyl group at R^2 (i.e. compounds 13–17 and 19–22). […] Introduction of a ramified isobutyl chain (compound 15) led also to a loss of the activity (entry 13, Table 1). […] In the same way, a less flexible chain bearing an alkyne group (compound 14) was not tolerated, as well as a long chain (compound 22) (Table 1, entries 12 and 20 respectively).

melting point | IC50 (A375 melanoma cells) | IC50 [2] | Compound | IC50 ([3]; Mus musculus, NIH3T3, 72 h) | other results
115 to 116 °C |  |  | C[C@@H]1NC(c2ccc(C#C[Si](C)(C)C)cc2)=Nc2nc3ccccn3c2C1=O |  | 
 |  |  | CC1NC(c2cccc3ccccc23)=Nc2nc3ccccn3c2C1=O (stereo not drawn) [1-naphthyl derivative] |  | IC50 [1]: 1.4 µM
 |  |  | CC1NC(c2ccc3ccccc3c2)=Nc2nc3ccccn3c2C1=O (stereo not drawn) [2-naphthyl derivative] |  | IC50 [1]: 1.4 µM
128 to 129 °C | 10.2 ± 0.55 µM | 5.14 ± 0.08 µM | C#Cc1ccc(C2=Nc3nc4ccccn4c3C(=O)[C@H](C)N2)cc1 [4′, (4S)-4-methyl-2–(4-ethynylphenyl)-3,4-dihydro-5H-pyrido[1’,2’:1,2]imidazo[4,5-d][1,3]diazepin-5-one] | > 40 µM | molecular volume increase compared to JMV5038 [4]: 2%
164.5 to 165.5 °C | > 40 µM | > 40 µM | C[C@@H]1NC(c2c[nH]c3ccccc23)=Nc2nc3ccccn3c2C1=O [9′, (4S)-4-methyl-2-indol-3-yl-3,4-dihydro-5H-pyrido[1’,2’:1,2]imidazo[4,5-d][1,3]diazepin-5-one] |  | cytotoxic activity on A375 (in words) (A375 melanoma cells): totally inactive; cytotoxic activity on MDA-MB-435 (in words) [2]: totally inactive
132 to 133 °C | > 40 µM | > 40 µM | C[C@@H]1NC(c2ccc(C(=O)c3ccccc3)cc2)=Nc2nc3ccccn3c2C1=O [Compound 6, (4S)-4-methyl-2-(4-benzoylphenyl)-3,4-dihydro-5H-pyrido[1’,2’:1,2]imidazo[4,5-d][1,3]diazepin-5-one] |  | cytotoxic activity on A375 (in words) (A375 melanoma cells): totally inactive; cytotoxic activity on MDA-MB-435 (in words) [2]: totally inactive
164 to 165 °C | 8.47 ± 0.21 µM | 25.92 ± 0.17 µM | C[C@@H]1NC(c2coc3ccccc23)=Nc2nc3ccccn3c2C1=O [Compound 7, (4S)-4-methyl-2-benzofuran-3-yl-3,4-dihydro-5H-pyrido[1’,2’:1,2]imidazo[4,5-d][1,3]diazepin-5-one] | > 40 µM | times less active on MDA-MB-435 than on A375 cells [2]: around 3
155 to 157 °C |  |  | C[C@@H]1NC(c2cn(C(=O)OC(C)(C)C)c3ccccc23)=Nc2nc3ccccn3c2C1=O [Compound 9, (4S)-4-methyl-2-(1-boc-indol-3-yl)-3,4-dihydro-5H-pyrido[1’,2’:1,2]imidazo[4,5-d][1,3]diazepin-5-one] |  | 
165 to 166 °C | 9.76 ± 0.95 µM | 35.49 ± 0.21 µM | C[C@@H]1NC(c2ccc3ncccc3c2)=Nc2nc3ccccn3c2C1=O [Compound 10, (4S)-4-methyl-2-quinolin-6-yl-3,4-dihydro-5H-pyrido[1’,2’:1,2]imidazo[4,5-d][1,3]diazepin-5-one] | > 40 µM | times less active on MDA-MB-435 than on A375 cells [2]: around 3
170 to 171 °C | 15.6 ± 0.7 µM | 30.71 ± 0.19 µM | C[C@@H]1NC(c2ccc3ccccc3n2)=Nc2nc3ccccn3c2C1=O [Compound 11, (4S)-4-methyl-2-quinolin-2-yl-3,4-dihydro-5H-pyrido[1’,2’:1,2]imidazo[4,5-d][1,3]diazepin-5-one] | > 40 µM | times less active on MDA-MB-435 than on A375 cells [2]: around 3
132.5 to 133.5 °C | > 40 µM | > 40 µM | C[C@@H]1NC(c2ccc3oc(=O)ccc3c2)=Nc2nc3ccccn3c2C1=O [Compound 12, (4S)-4-methyl-2-coumarin-6-yl-3,4-dihydro-5H-pyrido[1’,2’:1,2]imidazo[4,5-d][1,3]diazepin-5-one] |  | cytotoxic activity on A375 (in words) (A375 melanoma cells): totally abolished the activity; cytotoxic activity on MDA-MB-435 (in words) [2]: totally abolished the activity
 | 15.3 ± 1.29 µM | 30.83 ± 0.09 µM | CCCC[C@@H]1NC(c2ccc(Br)cc2)=Nc2nc3ccccn3c2C1=O [Compound 13, (4S)-4-butyl-(4-bromophenyl)-3,4-dihydro-5H-pyrido[1’,2’:1,2]imidazo[4,5-d][1,3]diazepin-5-one] | > 40 µM | 
 | > 40 µM | > 30 µM | C#CC[C@@H]1NC(c2ccc(Br)cc2)=Nc2nc3ccccn3c2C1=O [Compound 14, (4S)-4-propargyl-2-(4-bromophenyl)-3,4-dihydro-5H-pyrido[1’,2’:1,2]imidazo[4,5-d][1,3]diazepin-5-one] |  | 
72 to 73 °C | > 40 µM | > 30 µM | CC(C)C[C@@H]1NC(c2ccc(Br)cc2)=Nc2nc3ccccn3c2C1=O [Compound 15, (4S)-4-isobutyl-2-(4-bromophenyl)-3,4-dihydro-5H-pyrido[1’,2’:1,2]imidazo[4,5-d][1,3]diazepin-5-one] |  | 
 | 8.54 ± 0.22 µM | 30.9 ± 0.11 µM | [N-]=[N+]=NCCCC[C@H]1NC(c2ccc(Br)cc2)=Nc2nc3ccccn3c2C1=O [Compound 17, (4R)-4-(4-azidobutyl)-2-(4-bromophenyl)-3,4-dihydro-5H-pyrido[1’,2’:1,2]imidazo[4,5-d][1,3]diazepin-5-one] | ~10 µM | IC50 ([3]; 72 h): 13.7 ± 0.34 µM
116 to 117 °C | > 40 µM | > 40 µM | [N-]=[N+]=NCCCC[C@@H]1NC(c2ccccc2)=Nc2nc3ccccn3c2C1=O [Compound 18, (4S)-4-(4-azidobutyl)-2-phenyl-3,4-dihydro-5H-pyrido[1’,2’:1,2]imidazo[4,5-d][1,3]diazepin-5-one] |  | cytotoxic activity on A375 (in words) (A375 melanoma cells): totally inactive; cytotoxic activity on MDA-MB-435 (in words) [2]: totally inactive
72.5 to 73.5 °C | 9.78 ± 0.83 µM | 19.4 ± 0.64 µM | O=C(C[C@@H]1NC(c2ccc(Br)cc2)=Nc2nc3ccccn3c2C1=O)OCc1ccccc1 [Compound 19, (4S)-benzyl [2-(4-bromophenyl)-5-oxo-4,5-dihydro-3H-pyrido[1’,2’:1,2]imidazo[4,5-d][1,3]diazepin-4-yl]acetate] | > 40 µM | hydrolysis rate (conversion into acid 21) [5]: 65.5%
 | > 40 µM | > 40 µM | O=C1c2c(nc3ccccn23)N=C(c2ccc(Br)cc2)N2CCC[C@@H]12 [Compound 20, 7–(4-bromophenyl)-9,10,11,11a-tetrahydro-12H-pyrido[2’,1’:2,3]imidazo[4,5-f]pyrrolo[1,2-c][1,3]diazepin-12-one] |  | 
 | > 40 µM | > 40 µM | O=C(O)C[C@@H]1NC(c2ccc(Br)cc2)=Nc2nc3ccccn3c2C1=O [Compound 21, (4S)-[2-(4-bromophenyl)-5-oxo-4,5-dihydro-3H-pyrido[1’,2’:1,2]imidazo[4,5-d][1,3]diazepin-4-yl]acetic acid] |  | cytotoxic activity on A375 (in words) (A375 melanoma cells): inactive; cytotoxic activity on MDA-MB-435 (in words) [2]: inactive
 | > 40 µM | > 40 µM | C#CCCC(=O)NCCCC[C@@H]1NC(c2ccc(Br)cc2)=Nc2nc3ccccn3c2C1=O [Compound 22, (4S)-N-{4-[2-(4-bromophenyl)-5-oxo-4,5-dihydro-3H-pyrido[1’,2’:1,2]imidazo[4,5-d][1,3]diazepin-4-yl]butyl}pent-4-ynamide] |  | 
